ChEMBL document CHEMBL1201862, “PubChem BioAssay data set” (2004)
Activity calls are given as the source filed them.

Key:
[1] = molecular target: T1, Sentrin-specific protease 8 (Homo sapiens, UniProt Q96LD8); format: functional
T1 sequence (Q96LD8 whole entry): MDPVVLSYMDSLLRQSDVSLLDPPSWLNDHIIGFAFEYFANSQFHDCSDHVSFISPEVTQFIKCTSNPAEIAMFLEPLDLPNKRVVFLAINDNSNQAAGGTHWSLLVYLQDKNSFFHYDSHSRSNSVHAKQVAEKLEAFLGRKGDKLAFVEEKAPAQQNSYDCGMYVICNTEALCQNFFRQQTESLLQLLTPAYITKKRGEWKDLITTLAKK

[2] = molecular target: T2, Apoptotic protease-activating factor 1 (Homo sapiens, UniProt O14727); format: functional
T2 sequence (O14727 whole entry): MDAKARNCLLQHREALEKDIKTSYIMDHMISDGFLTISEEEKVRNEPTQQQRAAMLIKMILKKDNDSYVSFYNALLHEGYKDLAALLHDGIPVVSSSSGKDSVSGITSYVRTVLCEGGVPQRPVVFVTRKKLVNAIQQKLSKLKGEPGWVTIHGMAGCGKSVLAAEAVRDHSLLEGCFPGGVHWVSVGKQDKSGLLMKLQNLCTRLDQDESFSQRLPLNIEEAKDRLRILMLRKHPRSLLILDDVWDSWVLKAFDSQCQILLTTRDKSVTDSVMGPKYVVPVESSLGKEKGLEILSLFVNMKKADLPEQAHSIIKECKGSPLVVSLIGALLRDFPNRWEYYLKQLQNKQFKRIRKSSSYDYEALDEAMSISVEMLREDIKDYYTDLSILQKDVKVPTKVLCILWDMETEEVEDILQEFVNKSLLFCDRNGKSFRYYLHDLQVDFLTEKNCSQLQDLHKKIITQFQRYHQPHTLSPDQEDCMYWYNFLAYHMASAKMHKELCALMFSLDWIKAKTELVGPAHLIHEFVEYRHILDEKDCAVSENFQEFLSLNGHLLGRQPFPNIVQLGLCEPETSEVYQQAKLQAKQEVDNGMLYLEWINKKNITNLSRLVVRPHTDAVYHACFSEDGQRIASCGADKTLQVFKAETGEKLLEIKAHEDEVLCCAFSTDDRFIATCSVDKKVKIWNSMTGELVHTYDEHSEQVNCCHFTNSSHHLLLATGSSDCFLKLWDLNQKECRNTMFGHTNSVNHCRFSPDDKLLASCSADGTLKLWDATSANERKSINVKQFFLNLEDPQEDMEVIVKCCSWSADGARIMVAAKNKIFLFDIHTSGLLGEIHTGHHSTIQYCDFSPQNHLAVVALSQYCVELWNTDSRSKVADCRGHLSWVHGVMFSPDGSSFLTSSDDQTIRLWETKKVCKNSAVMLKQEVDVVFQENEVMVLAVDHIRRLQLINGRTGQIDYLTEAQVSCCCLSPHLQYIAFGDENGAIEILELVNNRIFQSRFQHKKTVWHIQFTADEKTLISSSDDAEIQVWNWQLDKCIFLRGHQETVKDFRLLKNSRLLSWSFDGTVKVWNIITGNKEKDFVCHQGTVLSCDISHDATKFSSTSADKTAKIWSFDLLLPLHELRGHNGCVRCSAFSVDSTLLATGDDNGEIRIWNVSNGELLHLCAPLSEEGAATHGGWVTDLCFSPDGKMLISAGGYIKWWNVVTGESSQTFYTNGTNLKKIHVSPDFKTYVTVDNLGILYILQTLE

[3] = molecular target: T3, Tyrosyl-DNA phosphodiesterase 2 (Homo sapiens, UniProt O95551); test: human TDP2 enzyme inhibitors, dose response, biochemical, epi absorbance, IC50 (AID 743297)
T3 sequence (O95551 whole entry): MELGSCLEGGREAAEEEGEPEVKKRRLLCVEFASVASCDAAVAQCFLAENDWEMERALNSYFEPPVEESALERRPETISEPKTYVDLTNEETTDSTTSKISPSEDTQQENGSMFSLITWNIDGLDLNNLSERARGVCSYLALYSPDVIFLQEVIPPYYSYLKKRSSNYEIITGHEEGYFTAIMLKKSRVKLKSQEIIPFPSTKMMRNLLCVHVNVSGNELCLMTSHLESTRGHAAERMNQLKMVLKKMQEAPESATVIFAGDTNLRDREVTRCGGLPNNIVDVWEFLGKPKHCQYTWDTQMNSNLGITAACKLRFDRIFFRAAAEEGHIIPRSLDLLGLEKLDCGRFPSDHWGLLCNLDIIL

[4] = molecular target: Cytochrome P450 2C9 (Homo sapiens, UniProt P11712)
[5] = molecular target: Acetyl-CoA acetyltransferase/HMG-CoA reductase (Enterococcus faecalis, UniProt Q9FD70); test: inhibitors of E. faecalis class II HMGR, confirmation, biochemical, Enterococcus faecalis (AID 1233); format: functional
[6] = molecular target: T4, Endoribonuclease toxin MazF (Escherichia coli K-12, UniProt P0AE70); test: fluorescent RNA oligo signal without MazF, dose response, counter-screen for MazEF activator project, biochemical, fluorescence, single-stranded RNase substrate (AID 588502); format: functional
T4 sequence (P0AE70 whole entry): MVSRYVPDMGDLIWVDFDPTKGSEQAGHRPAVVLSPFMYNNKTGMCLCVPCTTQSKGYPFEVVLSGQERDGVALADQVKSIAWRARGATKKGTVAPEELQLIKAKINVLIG

[7] = molecular target: T1, Sentrin-specific protease 8; format: functional; remark: listed apart in the source
[8] = test system: Vero; test: Vero cell cytotoxicity, cytotoxicity control for flavivirus capping enzyme inhibitors (AID 588742); format: functional; conditions: Chlorocebus sabaeus
[9] = test system: A-375; test: MITF: Counter assay: A375 proliferation Measured in Cell-Based System Using Plate Reader - 2084-03_Inhibitor_Dose_DryPowder_Activity. [Related pubchem assays (depositor defined):AID488944]; format: functional; conditions: Homo sapiens

Cytochrome P450 2C9, sequence (P11712 whole entry): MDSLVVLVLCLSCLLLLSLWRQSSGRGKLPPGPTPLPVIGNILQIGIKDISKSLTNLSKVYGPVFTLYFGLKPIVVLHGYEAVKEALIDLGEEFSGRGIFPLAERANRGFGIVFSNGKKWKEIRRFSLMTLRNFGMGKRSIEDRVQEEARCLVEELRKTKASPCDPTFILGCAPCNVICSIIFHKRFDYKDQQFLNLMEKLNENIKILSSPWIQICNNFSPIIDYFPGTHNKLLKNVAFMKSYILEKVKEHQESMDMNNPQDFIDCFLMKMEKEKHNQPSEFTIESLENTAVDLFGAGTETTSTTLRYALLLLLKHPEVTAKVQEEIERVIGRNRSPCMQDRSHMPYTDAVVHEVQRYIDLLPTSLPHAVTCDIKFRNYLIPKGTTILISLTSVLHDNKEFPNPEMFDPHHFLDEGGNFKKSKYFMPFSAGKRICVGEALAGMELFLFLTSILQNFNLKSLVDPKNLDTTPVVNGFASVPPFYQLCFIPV

Row | SMILES | IC50 [1] | IC50 [2] | IC50 [3] | AC50 [4] | IC50 [5] | EC50 [6] | IC50 [7] | CC50 [8] | AC50 [9]
1 | CC(C)=CCC1=C(OCC(=O)O)C(=O)c2ccccc2C1=O | 3.91 µM (active) | 6.11 µM (active) | 23.6 µM (inactive) | 3.98 µM (inconclusive) | – | – | – | – | –
2 | Cc1[nH][nH]c(=O)c1C(c1c(C)[nH][nH]c1=O)c1cn(Cc2ccccc2Cl)c2ccccc12 | – | – | 54.2 µM (inactive) | – | 91 µM (active) | > 99 µM (inactive) | 4.89 µM (active) | – | –
3 | Cc1cccc(NC2=C(NC(=O)c3ccccc3)C(=O)c3ccccc3C2=O)c1 | – | 13.4 µM (active) | – | – | – | – | – | > 40 µM (active) | 34 µM (active)
